A short description of data set [1]: Partition coefficient (LogP), octanol / phosphate buffer pH 7.4. The following applies: octanol and phosphate buffer pH 7.4 (0.04 M KHPO4), LC-MS detection. It is filed as physicochemical. An excerpt: The concentration of the compounds in the phases was detected by LC-MS.
A short description of data set [2]: Bioavailability: plasma concentration after oral administration to rats. It counts as in vivo, male Sprague-Dawley rats. Particulars: rat; for Cmax / Tmax: male, Sprague-Dawley, plasma, vehicle Mix; for Cmax / Tmax / AUC / delivery of PL-100 and PL-337 compared to non-aqueous formulations of PL-100 and PL-337: 50 mg/Kg po; for delivery of PL-100 and PL-337 compared to non-aqueous formulations of PL-100 and PL-337: aqueous dosing; for administered compound detected in the blood samples: po, delivered as aqueous solutions, suggests rapid metabolism to parent drugs. On the procedure: To assess the extent of in vivo cleavage of the phosphate group from the putative compounds, PL-100, PL-462 (based on PL-100), PL-337 and PL-515 (based on PL-337) compounds were administered po (50 mg/kg) to male Sprague-Dawley rats and their plasma concentration measured at different time intervals post-administration. All test articles (PL-100, PL-462, PL-337 and PL-515) were prepared in different vehicle at the final concentration of 25 mg/mL. The vehicle composition is as follows: (1) 20% ethanol; 50% propylene glycol; 0.05% w/v Tween 20 and water (Mix); (2) PBS buffer (PBS). Test articles were administered to male Sprague-Dawley rats at a single oral dose of 50 mg/kg. Each article was tested in three rats. Blood samples (0.2-0.3 mL) were collected at the post-dose time of 10, 20, 40, 60,120, 180 and 360 minutes. The harvested blood was centrifuged to isolate plasma. The resulting plasma was separated and stored at -70°C. Plasma samples together with standards and quality control samples were treated to precipitate proteins, then analyzed by HPLC-MS, for the presence of PL-462, PL-100, PL-515 and PL-337.

[3] abbreviates: vehicle Mix (20% ethanol; 50% propylene glycol; 0.05% w/v Tween 20 and water).
Setting [4] is: vehicle PBS, parent drug (PL-100 or PL-337) detected in plasma.

Like-named read-outs stand apart in the source and are kept apart here.

Experimental findings from patent EP2165709B1, “Pharmaceutical compositions comprising a lysine based compound and an HIV antiviral or antiretroviral agent” (Ambrilia Biopharma Inc., priority 2004, dated 2006) are described below.

For orientation: logP means the decadic logarithm of the partition coefficient of the neutral form, usually between octanol and water. The term Cmax denotes the peak of the concentration-time curve. By Tmax is commonly meant the time at which the peak concentration occurs.

For the compound `COC(=O)N[C@H](C(=O)NCCCC[C@@H](CO)N(CC(C)C)S(=O)(=O)c1ccc(N)cc1)C(c1ccccc1)c1ccccc1` [PL-100, (1S,5S)-(1-{5-[(4-amino-benzenesulfonyl)-isobutyl-amino]-6-hydroxy-hexylcarbamoyl}-2,2-diphenyl-ethyl)-carbamic acid methyl ester], the logP in data set [1] (read-out: LogP) was 3.6. In data set [2], the highest level (Cmax) was 498 ± 203 nM and the Tmax is 40 min. The same compound registered an AUC in data set [2] (setting [3]) of 0.675 ± 0.171 µg/hr*ml.

As to `COC(=O)N[C@H](C(=O)NCCCC[C@@H](CO)N(CC(C)C)S(=O)(=O)c1ccc(N)c(F)c1)C(c1ccccc1)c1ccccc1` [PL-337, (1-{5-[(4-amino-3-fluoro-benzenesulfonyl)-isobutyl-amino]-6-hydroxy-hexylcarbamoyl}-2,2-diphenyl-ethyl)-carbamic acid methyl ester], in data set [2], the Cmax amounted to 681 ± 131 nM and the time of peak concentration (Tmax) is 60 min. This compound also yielded an AUC in data set [2] (setting [3]) of 1.180 ± 0.196 µg/hr*ml.

Regarding `COC(=O)N[C@H](C(=O)NCCCC[C@@H](COP(=O)(O)O)N(CC(C)C)S(=O)(=O)c1ccc(N)cc1)C(c1ccccc1)c1ccccc1` [PL-461, (1S,5S)-(1-{5-[(4-amino-benzenesulfonyl)-isobutyl-amino]-6-phosphonooxy-hexylcarbamoyl}-2,2-diphenyl-ethyl)-carbamic acid methyl ester], the log partition coefficient (logP) in data set [1] (read-out: LogP) is -1.2.

Compound `COC(=O)N[C@H](C(=O)NCCCC[C@@H](COP(=O)(O)O)N(CC(C)C)S(=O)(=O)c1ccc(N)cc1)C(c1ccccc1)c1ccccc1.[Na]` [PL-462, (1S,5S)-(1-{5-[(4-amino-benzenesulfonyl)-isobutyl-amino]-6-phosphonooxy-hexylcarbamoyl}-2,2-diphenyl-ethyl)-carbamic acid methyl ester sodium salt] had a lipophilicity (logP) in data set [1] of -1.2. Moreover, the AUC in data set [2] (setting [4]) is given as 0.816 ± 0.295 (PL-100, detected) µg/hr*ml. In data set [2], the “delivery of PL-100 and PL-337 compared to non-aqueous formulations of PL-100 and PL-337” value is given as “equivalent to slightly superior”; the “administered compound detected in the blood samples” value is “None”.

Turning to `COC(=O)N[C@H](C(=O)NCCCC[C@@H](COP(=O)(O)O)N(CC(C)C)S(=O)(=O)c1ccc(N)c(F)c1)C(c1ccccc1)c1ccccc1` [PL-515, (1S,5S)-(1-{5-[(4-amino-3-fluoro-benzenesulfonyl)-isobutyl-amino]-6-phosphonooxy-hexylcarbamoyl}-2,2-diphenyl-ethyl)-carbamic acid methyl ester], the logP in data set [1] (read-out: LogP) was -0.75. Further, in data set [2] (setting [4]), the AUC is 1.075 ± 0.625 (PL-337, detected) µg/hr*ml. Moreover, in data set [2], the “delivery of PL-100 and PL-337 compared to non-aqueous formulations of PL-100 and PL-337” value was “equivalent to slightly superior”; the “administered compound detected in the blood samples” value is “None”.
